Reference: ChEMBL document CHEMBL4507268 (2021)

Legend:
[1] = target: Tyrosine-protein kinase Yes (Homo sapiens) (UniProt P07947); conditions: Compound concentration 1000.0 nM
[2] = target: Atypical kinase COQ8B, mitochondrial (Homo sapiens) (UniProt Q96D53); conditions: Compound concentration 1000.0 nM
[3] = target: Dual specificity testis-specific protein kinase 1 (Homo sapiens) (UniProt Q15569); conditions: Compound concentration 1000.0 nM
[4] = target: Platelet-derived growth factor receptor beta (Homo sapiens) (UniProt P09619); conditions: Compound concentration 1000.0 nM
[5] = target: Ephrin type-A receptor 5 (Homo sapiens) (UniProt P54756); conditions: Compound concentration 1000.0 nM
[6] = target: Serine/threonine-protein kinase Chk2 (Homo sapiens) (UniProt O96017); conditions: Compound concentration 1000.0 nM
[7] = test system: Leucine-rich repeat serine/threonine-protein kinase 2 (Homo sapiens), Q5S007 [G2019S]; conditions: Compound concentration 1000.0 nM
[8] = test system: Phosphatidylinositol 4,5-bisphosphate 3-kinase catalytic subunit alpha isoform (Homo sapiens), P42336 [E542K]; conditions: Compound concentration 1000.0 nM
[9] = target: Tyrosine-protein kinase Fyn (Homo sapiens) (UniProt P06241); conditions: Compound concentration 1000.0 nM
[10] = target: LIM domain kinase 1 (Homo sapiens) (UniProt P53667); conditions: Compound concentration 1000.0 nM
[11] = target: T1, Phosphatidylinositol 3-kinase C2 domain-containing subunit gamma (Homo sapiens) (UniProt O75747); conditions: Compound concentration 1000.0 nM
T1 sequence (whole entry): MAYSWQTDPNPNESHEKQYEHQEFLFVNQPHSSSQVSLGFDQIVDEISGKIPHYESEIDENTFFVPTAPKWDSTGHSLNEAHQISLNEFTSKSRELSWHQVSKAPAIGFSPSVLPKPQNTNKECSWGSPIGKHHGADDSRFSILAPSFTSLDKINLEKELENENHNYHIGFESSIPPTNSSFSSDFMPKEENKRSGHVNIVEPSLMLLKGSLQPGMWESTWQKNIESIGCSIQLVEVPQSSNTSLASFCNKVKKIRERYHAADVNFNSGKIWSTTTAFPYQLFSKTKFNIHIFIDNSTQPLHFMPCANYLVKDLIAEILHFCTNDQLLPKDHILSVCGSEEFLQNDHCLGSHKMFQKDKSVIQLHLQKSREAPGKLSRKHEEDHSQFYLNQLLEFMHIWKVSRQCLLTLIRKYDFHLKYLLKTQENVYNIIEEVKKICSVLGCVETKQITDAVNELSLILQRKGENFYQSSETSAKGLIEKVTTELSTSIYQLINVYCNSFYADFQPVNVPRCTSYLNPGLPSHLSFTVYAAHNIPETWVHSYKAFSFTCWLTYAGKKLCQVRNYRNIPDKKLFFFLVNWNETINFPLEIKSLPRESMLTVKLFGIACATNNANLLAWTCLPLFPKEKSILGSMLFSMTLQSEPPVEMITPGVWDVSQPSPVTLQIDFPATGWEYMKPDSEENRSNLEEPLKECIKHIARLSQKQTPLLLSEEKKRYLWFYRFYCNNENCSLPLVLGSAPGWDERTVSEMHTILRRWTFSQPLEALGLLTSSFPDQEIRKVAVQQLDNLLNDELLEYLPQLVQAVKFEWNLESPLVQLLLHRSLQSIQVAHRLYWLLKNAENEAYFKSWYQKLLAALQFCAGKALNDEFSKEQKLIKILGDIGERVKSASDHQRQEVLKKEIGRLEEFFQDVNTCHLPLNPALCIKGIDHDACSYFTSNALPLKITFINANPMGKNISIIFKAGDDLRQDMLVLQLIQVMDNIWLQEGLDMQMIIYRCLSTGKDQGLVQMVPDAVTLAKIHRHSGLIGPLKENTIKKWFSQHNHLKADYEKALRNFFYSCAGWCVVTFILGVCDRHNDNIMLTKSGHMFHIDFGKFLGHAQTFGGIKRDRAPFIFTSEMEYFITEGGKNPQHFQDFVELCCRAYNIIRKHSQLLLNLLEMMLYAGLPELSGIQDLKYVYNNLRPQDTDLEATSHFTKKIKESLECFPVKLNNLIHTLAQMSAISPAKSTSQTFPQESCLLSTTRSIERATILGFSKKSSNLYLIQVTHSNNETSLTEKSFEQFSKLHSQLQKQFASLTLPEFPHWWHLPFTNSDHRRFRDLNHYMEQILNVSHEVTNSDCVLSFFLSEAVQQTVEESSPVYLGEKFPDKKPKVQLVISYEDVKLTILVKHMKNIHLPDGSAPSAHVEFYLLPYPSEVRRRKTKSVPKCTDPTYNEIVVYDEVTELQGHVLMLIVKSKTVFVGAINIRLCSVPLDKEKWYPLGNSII

[12] = target: Mast/stem cell growth factor receptor Kit (Homo sapiens) (UniProt P10721); conditions: Compound concentration 1000.0 nM
[13] = target: Interleukin-1 receptor-associated kinase 3 (Homo sapiens) (UniProt Q9Y616); conditions: Compound concentration 1000.0 nM
[14] = target: Serine/threonine-protein kinase OSR1 (Homo sapiens) (UniProt O95747); conditions: Compound concentration 1000.0 nM
[15] = target: Serine/threonine-protein kinase PAK 1 (Homo sapiens) (UniProt Q13153); conditions: Compound concentration 1000.0 nM
[16] = target: Cyclin-dependent kinase 11A (Homo sapiens) (UniProt Q9UQ88); conditions: Compound concentration 1000.0 nM
[17] = target: Serine/threonine-protein kinase SBK1 (Homo sapiens) (UniProt Q52WX2); conditions: Compound concentration 1000.0 nM
[18] = target: Leukocyte tyrosine kinase receptor (Homo sapiens) (UniProt P29376); conditions: Compound concentration 1000.0 nM
[19] = target: Protein kinase C theta type (Homo sapiens) (UniProt Q04759); conditions: Compound concentration 1000.0 nM
[20] = target: Serine/threonine-protein kinase PAK 4 (Homo sapiens) (UniProt O96013); conditions: Compound concentration 1000.0 nM
[21] = target: Dual specificity mitogen-activated protein kinase kinase 4 (Homo sapiens) (UniProt P45985); conditions: Compound concentration 1000.0 nM
[22] = target: Serine/threonine-protein kinase 24 (Homo sapiens) (UniProt Q9Y6E0); conditions: Compound concentration 1000.0 nM
[23] = target: Proto-oncogene tyrosine-protein kinase receptor Ret (Homo sapiens) (UniProt P07949); conditions: Compound concentration 1000.0 nM
[24] = target: Serine/threonine-protein kinase PLK2 (Homo sapiens) (UniProt Q9NYY3); conditions: Compound concentration 1000.0 nM
[25] = target: Kappa-type opioid receptor (Homo sapiens) (UniProt P41145); conditions: Compound concentration 10.0 uM
Sequence of Kappa-type opioid receptor (Homo sapiens) (P41145 whole entry): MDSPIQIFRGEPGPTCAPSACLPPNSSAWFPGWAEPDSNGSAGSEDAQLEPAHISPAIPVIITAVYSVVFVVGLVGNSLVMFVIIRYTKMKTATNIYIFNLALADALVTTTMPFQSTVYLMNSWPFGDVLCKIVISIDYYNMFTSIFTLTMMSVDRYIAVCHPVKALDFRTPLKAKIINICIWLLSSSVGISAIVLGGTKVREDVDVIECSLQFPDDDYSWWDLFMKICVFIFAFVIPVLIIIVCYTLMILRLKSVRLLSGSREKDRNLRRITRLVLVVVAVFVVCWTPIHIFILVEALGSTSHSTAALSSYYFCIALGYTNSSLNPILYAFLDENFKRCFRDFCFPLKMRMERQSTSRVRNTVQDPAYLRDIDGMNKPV

Sequence of Dual specificity testis-specific protein kinase 1 (Homo sapiens) (Q15569 whole entry, looked up): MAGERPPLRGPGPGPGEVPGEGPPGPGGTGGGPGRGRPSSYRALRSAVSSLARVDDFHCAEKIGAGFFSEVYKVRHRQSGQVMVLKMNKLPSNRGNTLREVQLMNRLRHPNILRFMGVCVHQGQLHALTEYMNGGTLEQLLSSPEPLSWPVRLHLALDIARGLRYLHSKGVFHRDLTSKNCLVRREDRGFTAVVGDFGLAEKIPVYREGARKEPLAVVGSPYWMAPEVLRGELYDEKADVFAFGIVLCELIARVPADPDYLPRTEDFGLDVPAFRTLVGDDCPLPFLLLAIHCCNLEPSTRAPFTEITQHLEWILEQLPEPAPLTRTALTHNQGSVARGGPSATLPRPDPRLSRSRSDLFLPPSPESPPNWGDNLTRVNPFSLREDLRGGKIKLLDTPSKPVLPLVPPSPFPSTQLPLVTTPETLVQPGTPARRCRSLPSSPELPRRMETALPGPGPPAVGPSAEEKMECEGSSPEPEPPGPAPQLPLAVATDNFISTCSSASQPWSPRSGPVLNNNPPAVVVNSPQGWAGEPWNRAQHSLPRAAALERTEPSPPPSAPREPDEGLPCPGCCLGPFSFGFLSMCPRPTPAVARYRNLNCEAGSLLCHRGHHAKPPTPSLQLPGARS
Sequence of Serine/threonine-protein kinase 24 (Homo sapiens) (Q9Y6E0 whole entry, looked up): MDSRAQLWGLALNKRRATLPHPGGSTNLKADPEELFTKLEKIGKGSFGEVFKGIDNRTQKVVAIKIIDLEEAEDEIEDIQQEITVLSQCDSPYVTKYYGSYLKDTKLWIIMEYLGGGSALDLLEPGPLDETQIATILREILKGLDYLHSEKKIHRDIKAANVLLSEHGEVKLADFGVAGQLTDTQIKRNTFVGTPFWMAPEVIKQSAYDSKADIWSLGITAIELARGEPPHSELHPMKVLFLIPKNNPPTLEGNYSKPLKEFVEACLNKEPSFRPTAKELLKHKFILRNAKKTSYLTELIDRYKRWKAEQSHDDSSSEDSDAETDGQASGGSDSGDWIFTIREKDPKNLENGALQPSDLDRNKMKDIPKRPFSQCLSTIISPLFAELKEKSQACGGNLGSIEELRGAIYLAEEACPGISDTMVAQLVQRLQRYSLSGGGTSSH
Sequence of Protein kinase C theta type (Homo sapiens) (Q04759 whole entry, looked up): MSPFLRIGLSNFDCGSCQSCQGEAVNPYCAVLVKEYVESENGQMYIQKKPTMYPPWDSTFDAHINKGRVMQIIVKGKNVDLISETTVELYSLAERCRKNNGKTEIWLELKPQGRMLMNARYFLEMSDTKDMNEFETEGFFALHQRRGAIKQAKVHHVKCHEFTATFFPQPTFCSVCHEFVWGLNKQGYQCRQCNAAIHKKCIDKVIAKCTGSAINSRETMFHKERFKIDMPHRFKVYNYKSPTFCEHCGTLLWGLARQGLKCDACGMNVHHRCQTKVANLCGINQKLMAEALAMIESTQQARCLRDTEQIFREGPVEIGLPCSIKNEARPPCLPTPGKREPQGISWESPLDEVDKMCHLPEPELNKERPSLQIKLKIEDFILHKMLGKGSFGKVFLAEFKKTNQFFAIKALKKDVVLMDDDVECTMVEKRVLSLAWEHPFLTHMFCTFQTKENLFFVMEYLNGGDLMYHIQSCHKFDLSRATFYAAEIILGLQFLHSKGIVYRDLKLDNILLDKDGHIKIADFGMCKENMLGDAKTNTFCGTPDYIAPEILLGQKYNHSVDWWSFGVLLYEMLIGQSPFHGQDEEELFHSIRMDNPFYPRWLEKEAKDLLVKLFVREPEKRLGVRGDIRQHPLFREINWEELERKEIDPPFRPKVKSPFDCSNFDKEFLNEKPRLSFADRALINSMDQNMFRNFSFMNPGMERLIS
Sequence of Serine/threonine-protein kinase PLK2 (Homo sapiens) (Q9NYY3 whole entry, looked up): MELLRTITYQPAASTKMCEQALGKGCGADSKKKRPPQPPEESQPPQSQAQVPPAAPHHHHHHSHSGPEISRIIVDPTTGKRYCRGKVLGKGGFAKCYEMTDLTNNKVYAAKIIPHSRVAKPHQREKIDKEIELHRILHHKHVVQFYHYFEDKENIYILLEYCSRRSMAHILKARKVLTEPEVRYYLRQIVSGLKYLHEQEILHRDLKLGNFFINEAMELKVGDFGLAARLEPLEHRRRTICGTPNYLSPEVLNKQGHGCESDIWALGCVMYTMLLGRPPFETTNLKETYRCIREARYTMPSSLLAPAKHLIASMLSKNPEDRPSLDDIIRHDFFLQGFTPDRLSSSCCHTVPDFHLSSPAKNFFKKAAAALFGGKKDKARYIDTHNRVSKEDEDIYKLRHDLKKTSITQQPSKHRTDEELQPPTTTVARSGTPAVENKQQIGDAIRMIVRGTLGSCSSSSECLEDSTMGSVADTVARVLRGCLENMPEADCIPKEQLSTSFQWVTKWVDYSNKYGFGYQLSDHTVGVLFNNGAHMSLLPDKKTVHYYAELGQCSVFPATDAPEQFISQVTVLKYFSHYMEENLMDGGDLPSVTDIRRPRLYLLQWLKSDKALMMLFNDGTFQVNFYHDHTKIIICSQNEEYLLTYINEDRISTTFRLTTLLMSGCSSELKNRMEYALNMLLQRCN
Sequence of Serine/threonine-protein kinase PAK 4 (Homo sapiens) (O96013 whole entry, looked up): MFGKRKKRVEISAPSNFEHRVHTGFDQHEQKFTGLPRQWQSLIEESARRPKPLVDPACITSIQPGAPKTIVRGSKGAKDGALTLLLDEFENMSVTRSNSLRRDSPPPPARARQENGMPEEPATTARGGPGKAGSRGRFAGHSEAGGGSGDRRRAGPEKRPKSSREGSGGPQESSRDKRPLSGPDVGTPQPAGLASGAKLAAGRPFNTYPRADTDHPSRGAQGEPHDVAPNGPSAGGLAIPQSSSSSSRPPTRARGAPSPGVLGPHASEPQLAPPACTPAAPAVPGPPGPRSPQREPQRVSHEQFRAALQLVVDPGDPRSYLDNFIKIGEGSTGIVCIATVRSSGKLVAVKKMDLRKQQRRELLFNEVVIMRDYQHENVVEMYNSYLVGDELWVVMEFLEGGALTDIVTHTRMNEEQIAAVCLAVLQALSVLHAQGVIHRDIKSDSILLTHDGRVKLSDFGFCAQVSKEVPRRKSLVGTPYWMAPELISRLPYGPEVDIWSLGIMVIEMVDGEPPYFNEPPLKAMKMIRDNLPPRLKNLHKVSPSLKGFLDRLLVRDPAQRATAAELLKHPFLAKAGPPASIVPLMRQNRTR
Sequence of Cyclin-dependent kinase 11A (Homo sapiens) (Q9UQ88 whole entry): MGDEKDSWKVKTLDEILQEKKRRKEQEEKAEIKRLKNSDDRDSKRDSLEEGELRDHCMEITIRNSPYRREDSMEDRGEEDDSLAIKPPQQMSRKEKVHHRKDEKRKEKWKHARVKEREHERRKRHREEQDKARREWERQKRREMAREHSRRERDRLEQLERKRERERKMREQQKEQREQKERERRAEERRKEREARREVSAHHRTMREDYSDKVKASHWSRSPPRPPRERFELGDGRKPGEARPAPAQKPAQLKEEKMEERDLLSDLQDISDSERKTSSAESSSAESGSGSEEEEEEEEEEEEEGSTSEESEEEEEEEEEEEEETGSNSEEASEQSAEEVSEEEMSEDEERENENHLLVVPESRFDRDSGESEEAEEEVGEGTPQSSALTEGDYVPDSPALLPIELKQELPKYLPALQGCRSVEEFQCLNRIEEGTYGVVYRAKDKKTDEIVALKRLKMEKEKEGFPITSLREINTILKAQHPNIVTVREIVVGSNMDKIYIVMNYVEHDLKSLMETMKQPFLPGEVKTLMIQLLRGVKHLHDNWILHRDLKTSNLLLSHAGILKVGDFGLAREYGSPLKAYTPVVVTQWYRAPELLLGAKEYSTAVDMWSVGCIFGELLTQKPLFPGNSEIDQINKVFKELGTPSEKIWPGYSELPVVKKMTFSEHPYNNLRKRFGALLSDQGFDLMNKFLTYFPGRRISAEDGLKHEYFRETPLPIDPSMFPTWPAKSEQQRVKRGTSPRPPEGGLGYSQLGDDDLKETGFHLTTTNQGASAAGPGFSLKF
Sequence of LIM domain kinase 1 (Homo sapiens) (P53667 whole entry, looked up, the tested form may be a part): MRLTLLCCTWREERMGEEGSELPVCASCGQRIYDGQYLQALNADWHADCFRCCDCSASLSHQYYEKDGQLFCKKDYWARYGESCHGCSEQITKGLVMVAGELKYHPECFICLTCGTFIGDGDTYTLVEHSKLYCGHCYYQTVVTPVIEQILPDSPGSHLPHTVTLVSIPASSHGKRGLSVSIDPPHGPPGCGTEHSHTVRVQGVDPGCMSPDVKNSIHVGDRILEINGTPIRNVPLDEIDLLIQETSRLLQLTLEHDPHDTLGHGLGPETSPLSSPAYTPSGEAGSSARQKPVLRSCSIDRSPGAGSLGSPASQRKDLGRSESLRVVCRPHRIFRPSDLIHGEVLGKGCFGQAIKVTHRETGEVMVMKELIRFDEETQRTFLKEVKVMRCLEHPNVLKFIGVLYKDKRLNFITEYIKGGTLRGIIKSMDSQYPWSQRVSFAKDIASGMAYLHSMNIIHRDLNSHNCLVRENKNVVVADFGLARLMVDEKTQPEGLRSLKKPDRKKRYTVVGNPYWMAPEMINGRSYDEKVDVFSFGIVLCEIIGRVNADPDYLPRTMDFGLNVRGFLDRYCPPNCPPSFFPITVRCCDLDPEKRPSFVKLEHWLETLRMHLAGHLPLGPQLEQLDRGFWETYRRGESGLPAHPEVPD

SMILES | residual activity [1] [%] | residual activity [2] [%] | residual activity [3] [%] | residual activity [4] [%] | residual activity [5] [%] | residual activity [6] [%] | residual activity [7] [%] | residual activity [8] [%] | residual activity [9] [%] | residual activity [10] [%] | residual activity [11] [%] | residual activity [12] [%] | residual activity [13] [%] | residual activity [14] [%] | residual activity [15] [%] | residual activity [16] [%] | residual activity [17] [%] | residual activity [18] [%] | residual activity [19] [%] | residual activity [20] [%] | other results
Cc1nc(C2CCN(C(=O)c3ccc(OC(F)(F)F)cc3N)CC2)c2ncc(N3CCN(C)CC3)cc2n1 [BAY-693] | 100 | 93 | 100 | 95 | 99 | 100 | 100 | 92 | 96 | 93 | 100 | 76 | 99 | 49 | 100 | 100 | 40 | 86 | 93 | 100 | residual activity [21]: 100%; residual activity [22]: 97%; residual activity [23]: 100%; residual activity [24]: 74%; inhibition [25]: 21.2%
CN1CCN(c2cnc3c(C4CCN(C(=O)c5ccc(OC(F)(F)F)cc5N)CC4)ncnc3c2)CC1 [BAY-885] | 100 | 100 | 96 | 95 | 91 | 100 | 100 | 100 | 100 | 100 | 100 | 85 | 100 | 100 | 93 | 61 | 100 | 49 | 91 | 91 | residual activity [21]: 100%; residual activity [22]: 100%; residual activity [23]: 100%; residual activity [24]: 93%; inhibition [25]: 9.37%
